# Biological target: P. falciparum apicoplast DNA polymerase (Pf-apPOL) (Plasmodium falciparum, UniProt Q8ILY1)
# Experiment: Fluorescence-based high-throughput DNA polymerase assay (molecular beacon), primary screen and dose-response
# Type: biochemical
# Conditions: for DNA Pol: 90 min, 10 µM; for IC50: supplemental file 2, sheet IC50 nontoxic compounds, Pf-apPOL
# Experimental: The HT assay employs a molecular beacon, a stem-loop DNA template with a Cy3 dye and the Black Hole Quencher on the 3′ and 5′ ends of the DNA, respectively. Pf-apPOL concentration is based on a calculated absorptivity of ε280 = 56750 M^−1 cm^−1. Reactions were carried out at 25 °C, using Corning 3575 […] (well-volume, 20 µL). Assays testing for compound inhibition composed of reaction buffer (pH 7.9 in 50 mM potassium acetate, 20 mM Tris-acetate and 10 mM magnesium acetate), Pf-apPOL (20 nM), DNA substrate (20 nM), dNTPs (6 µM), and compound (10 µM in DMSO). The DNA and nucleotide substrates (dNTPs) were at concentrations of 20 nM and 6 µM, respectively, in the assay. Pf-apPOL was incubated in the reaction buffer with dNTPs and the compound of interest (10 µM, in the assay) at 25 °C for 10 min. The DNA substrate was then added and the reaction was allowed to proceed for 90 min at 25 °C.
# Each assay plate contained 16 negative controls (no Pf-apPOL, DMSO present) and 16 positive controls (Pf-apPOL present, no DMSO). The fluorescence of each well was determined using a BioTek Synergy Neo fluorescence plate reader using excitation and emission wavelengths of 555 and 570 nm, respectively.
# In the above, Min is the average of fluorescence emission of the negative controls (substrate only), Max the average fluorescence emission from the positive controls (enzyme + substrate), and Test the emission from the assays in the presence of compounds (enzyme + compound + substrates). […] […] The IC50 of each compound was determined using Equation (2): (2) IC50= Vmax/(1+ (I/IC50)^n)
# In the above, n measures cooperativity, with n > 1 indicating synergistic binding of more than a single molecule of the compound.
# To identify apPOL inhibitors we utilised our previously developed high-throughput DNA polymerase assay. The HT assay is based on a molecular beacon DNA template that forms a stem-loop with a Cy3 dye and the Black Hole Quencher on the 3′ and 5′ ends of the DNA, respectively. DNA polymerase activity extends an annealed primer through the stem region, displacing the fluorophore from the quencher, thereby increasing its fluorescence (Figure 1(A)). The assay accurately recapitulates the kinetic behaviour of apPOL, as measured through more conventional low-throughput gel-based assays. The Z′ factor for the assay described here was 0.9 across all plates (data not shown).
# Figure 1. High-throughput screening. (A) The fluorescent-based DNA polymerase assay used to screen the compound libraries. The DNA template strand is a hairpin loop with a primer annealed to the loop. The 3’ end of the primer is 11 bases away from the 6 bp duplex. Strand displacement activity of the DNA polymerase separates the Cy3 dye from the Black hole quencher leading to an increase in fluorescent signal. (B) The high-throughput assay workflow. The DNA polymerase is incubated with […] compound for 10 min prior to addition of the hairpin substrate. The reaction is quenched at 3 different time points and the fluorescent signal is measured and % inhibition is determined using the provided equation.
# [1] = primary screen value of the 186 hits, unit not given
# P. falciparum apicoplast DNA polymerase (Pf-apPOL), sequence (Q8ILY1 entry or part of it): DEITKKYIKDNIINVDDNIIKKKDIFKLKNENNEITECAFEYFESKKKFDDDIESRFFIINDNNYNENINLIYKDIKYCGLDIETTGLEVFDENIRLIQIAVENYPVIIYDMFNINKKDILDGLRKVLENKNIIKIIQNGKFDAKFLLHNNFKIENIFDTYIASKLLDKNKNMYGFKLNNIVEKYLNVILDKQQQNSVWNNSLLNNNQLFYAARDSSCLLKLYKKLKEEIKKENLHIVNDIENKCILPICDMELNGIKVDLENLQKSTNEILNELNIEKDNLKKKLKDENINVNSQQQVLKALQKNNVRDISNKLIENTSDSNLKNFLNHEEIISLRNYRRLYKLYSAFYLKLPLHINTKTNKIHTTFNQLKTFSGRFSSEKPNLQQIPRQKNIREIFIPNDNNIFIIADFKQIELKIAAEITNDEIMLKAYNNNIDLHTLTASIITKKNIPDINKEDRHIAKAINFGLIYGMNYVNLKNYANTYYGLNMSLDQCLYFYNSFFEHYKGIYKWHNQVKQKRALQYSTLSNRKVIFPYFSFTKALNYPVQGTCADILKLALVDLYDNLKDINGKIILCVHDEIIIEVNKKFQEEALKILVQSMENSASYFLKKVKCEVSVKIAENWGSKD
smiles,measurement,setting,value
"CCN1C(=O)C(=Cc2cccc(OC)c2O)SC1=S [Molecule 78, CCN1C(=S)SC(=Cc2cccc(c2O)OC)C1=O]",% inhibition Apo pol 10',"DRC-1, concentration 2.5",-5.558%
same,% inhibition Apo pol 10',"DRC-1, concentration 5",-7.622%
same,% inhibition Apo pol 10',"DRC-1, concentration 10",-2.049%
same,% inhibition Apo pol 10',"DRC-1, concentration 20",2.662%
same,% inhibition Apo pol 10',"DRC-1, concentration 40",14.6723%
same,% inhibition Apo pol 10',"DRC-1, concentration 80",44.8696%
same,% inhibition Apol 90',"DRC-1, 90', concentration 2.5",-2.637%
same,% inhibition Apol 90',"DRC-1, 90', concentration 5",-1.279%
same,% inhibition Apol 90',"DRC-1, 90', concentration 10",7.892%
same,% inhibition Apol 90',"DRC-1, 90', concentration 20",13.9946%
same,% inhibition Apol 90',"DRC-1, 90', concentration 40",28.6027%
same,% inhibition Apol 90',"DRC-1, 90', concentration 80",61.7186%
same,% inhibition apPOL 180',"DRC-1, concentration 2.5",5.183%
same,% inhibition apPOL 180',"DRC-1, concentration 5",11.9919%
same,% inhibition apPOL 180',"DRC-1, concentration 10",27.7441%
same,% inhibition apPOL 180',"DRC-1, concentration 20",33.831%
same,% inhibition apPOL 180',"DRC-1, concentration 40",51.4318%
same,% inhibition apPOL 180',"DRC-1, concentration 80",79.6969%
same,% inhibition Apo pol 5',"DRC-2, 5', concentration 2.5 (unit not given)",8%
same,% inhibition ApPOL 90',"DRC-2, 90', concentration 20 (unit not given)",8%
same,% inhibition Apo pol 5',"DRC-2, 5', concentration 2.5",8%
same,% inhibition Apo pol 5',"DRC-2, 5', concentration 5",3.24%
same,% inhibition Apo pol 5',"DRC-2, 5', concentration 10",14%
same,% inhibition Apo pol 5',"DRC-2, 5', concentration 20",21%
same,% inhibition Apo pol 5',"DRC-2, 5', concentration 40",38%
same,% inhibition Apo pol 5',"DRC-2, 5', concentration 80",40%
same,% inhibition Apol 40',"DRC-2, concentration 2.5",2.6%
same,% inhibition Apol 40',"DRC-2, concentration 5",-11%
same,% inhibition Apol 40',"DRC-2, concentration 10",9%
same,% inhibition Apol 40',"DRC-2, concentration 20",12%
same,% inhibition Apol 40',"DRC-2, concentration 40",39%
same,% inhibition Apol 40',"DRC-2, concentration 80",41%
same,% inhibition ApPOL 90',"DRC-2, 90', concentration 2.5",-1.1%
same,% inhibition ApPOL 90',"DRC-2, 90', concentration 5",-22%
same,% inhibition ApPOL 90',"DRC-2, 90', concentration 10",5.68%
same,% inhibition ApPOL 90',"DRC-2, 90', concentration 20",8%
same,% inhibition ApPOL 90',"DRC-2, 90', concentration 40",35%
same,% inhibition ApPOL 90',"DRC-2, 90', concentration 80",36%
same,% inhibition apPOL 180',"DRC-2, concentration 2.5",-5.52%
same,% inhibition apPOL 180',"DRC-2, concentration 5",-102%
same,% inhibition apPOL 180',"DRC-2, concentration 10",-2.72%
same,% inhibition apPOL 180',"DRC-2, concentration 20",-1.34%
same,% inhibition apPOL 180',"DRC-2, concentration 40",23%
same,% inhibition apPOL 180',"DRC-2, concentration 80",25%
same,DNA Pol,[1],43
same,DNA Pol,"primary screen value, head ""DNA Pol"", unit not given",43
COc1ccc(/C=C/c2cc(C(=O)O)c3ccccc3n2)cc1 [Molecule 5],IC50,,3.86 µM
O=C1NCCCn2cc(S(=O)(=O)Nc3ccccc3)cc21 [KU0214835],% inhibition Apo pol 10',"DRC-1, concentration 2.5",3.062%
same,% inhibition Apo pol 10',"DRC-1, concentration 5",6.352%
same,% inhibition Apo pol 10',"DRC-1, concentration 10",23.7327%
same,% inhibition Apo pol 10',"DRC-1, concentration 20",40.9778%
same,% inhibition Apo pol 10',"DRC-1, concentration 40",76.8886%
same,% inhibition Apo pol 10',"DRC-1, concentration 80",90.7287%
same,% inhibition Apol 90',"DRC-1, 90', concentration 2.5",-1.959%
same,% inhibition Apol 90',"DRC-1, 90', concentration 5",-0.5686%
same,% inhibition Apol 90',"DRC-1, 90', concentration 10",11.8703%
same,% inhibition Apol 90',"DRC-1, 90', concentration 20",23.2222%
same,% inhibition Apol 90',"DRC-1, 90', concentration 40",60.7318%
same,% inhibition Apol 90',"DRC-1, 90', concentration 80",88.5247%
same,% inhibition apPOL 180',"DRC-1, concentration 2.5",-6.967%
same,% inhibition apPOL 180',"DRC-1, concentration 5",-5.597%
same,% inhibition apPOL 180',"DRC-1, concentration 10",2.257%
same,% inhibition apPOL 180',"DRC-1, concentration 20",8.277%
same,% inhibition apPOL 180',"DRC-1, concentration 40",41.6614%
same,% inhibition apPOL 180',"DRC-1, concentration 80",83.4683%
same,% inhibition Apo pol 5',"DRC-2, 5', concentration 2.5",5.45%
same,% inhibition Apo pol 5',"DRC-2, 5', concentration 5",8%
same,% inhibition Apo pol 5',"DRC-2, 5', concentration 10",25%
same,% inhibition Apo pol 5',"DRC-2, 5', concentration 20",44%
same,% inhibition Apo pol 5',"DRC-2, 5', concentration 40",53%
same,% inhibition Apo pol 5',"DRC-2, 5', concentration 80",50%
same,% inhibition Apol 40',"DRC-2, concentration 2.5",7%
same,% inhibition Apol 40',"DRC-2, concentration 5",8%
same,% inhibition Apol 40',"DRC-2, concentration 10",24%
same,% inhibition Apol 40',"DRC-2, concentration 20",48%
same,% inhibition Apol 40',"DRC-2, concentration 40",66%
same,% inhibition Apol 40',"DRC-2, concentration 80",70%
same,% inhibition ApPOL 90',"DRC-2, 90', concentration 2.5",5.66%
same,% inhibition ApPOL 90',"DRC-2, 90', concentration 5",7%
same,% inhibition ApPOL 90',"DRC-2, 90', concentration 10",21%
same,% inhibition ApPOL 90',"DRC-2, 90', concentration 20",44%
same,% inhibition ApPOL 90',"DRC-2, 90', concentration 40",66%
same,% inhibition ApPOL 90',"DRC-2, 90', concentration 80",74%
same,% inhibition apPOL 180',"DRC-2, concentration 2.5",2%
same,% inhibition apPOL 180',"DRC-2, concentration 5",3.52%
same,% inhibition apPOL 180',"DRC-2, concentration 10",14%
same,% inhibition apPOL 180',"DRC-2, concentration 20",31%
same,% inhibition apPOL 180',"DRC-2, concentration 40",59%
same,% inhibition apPOL 180',"DRC-2, concentration 80",76%
same,% inhibition Apol 40',"conc. 2.5, DRC-2",7%
same,% inhibition Apo pol 5',"conc. 5, 5', DRC-2",8%
same,% inhibition Apol 40',"conc. 5, DRC-2",8%
same,% inhibition ApPOL 90',"conc. 5, 90', DRC-2",7%
same,% inhibition Apo pol 5',"conc. 20, 5', DRC-2",44%
same,% inhibition ApPOL 90',"conc. 20, 90', DRC-2",44%
same,% inhibition Apol 40',"conc. 40, DRC-2",66%
same,% inhibition ApPOL 90',"conc. 40, 90', DRC-2",66%
same,DNA Pol,primary screen value by plate and well,21
same,DNA Pol,[1],21
O=C1N=C(Nc2cccc(Cl)c2Cl)S/C1=C\c1ccco1 [Molecule 3],IC50,,4.99 µM
O=C(Nc1cccc(C(=O)Nc2ccc(S(=O)(=O)O)c3cc(S(=O)(=O)O)cc(S(=O)(=O)O)c23)c1)Nc1cccc(C(=O)Nc2ccc(S(=O)(=O)O)c3cc(S(=O)(=O)O)cc(S(=O)(=O)O)c23)c1 [Molecule 39],IC50,,6.77 µM

# Reference: article PMC9090415, “Discovery of small molecule inhibitors of Plasmodium falciparum apicoplast DNA polymerase” (Journal of Enzyme Inhibition and Medicinal Chemistry, 2022)
